Reference: ChEMBL document CHEMBL4400515, “Anti-parasitic activity of polyether ionophores” (Eur J Med Chem, 2019)
≈ marks a conversion by molar mass, not a printed value. Each block holds one compound with its values, some of them ahead of it.

Assays:
Trypanosoma brucei [1] = assay: Antitrypanosomal activity against bloodstream form of Trypanosoma brucei clone 427-221a measured after 72 hrs by resazurin dye based assay; assay type: functional
Trypanosoma brucei [2] = assay: Antitrypanosomal activity against bloodstream form of Trypanosoma brucei clone 427-221a measured after 72 hrs by microscopic analysis; assay type: functional
Plasmodium chabaudi = assay: Antiplasmodial activity against Plasmodium chabaudi infected in Swiss mouse assessed as reduction in parasitemia administered twice daily via ip for 4 days starting from 1.5 hrs post infection; assay type: functional
Plasmodium falciparum [3] = assay: Antimalarial activity against Plasmodium falciparum Nigerian infected in human red blood cells after 48 hrs by [3H]-hypoxanthine incorporation assay; assay type: functional, organism-based
Plasmodium berghei = assay: Antimalarial activity against Plasmodium berghei infected in po dosed mouse; assay type: functional
Plasmodium falciparum [4] = assay: Antiplasmodial activity against trophozoite stage of Plasmodium falciparum 3D7 measured after 48 hrs by [3H]-hypoxanthine incorporation assay; assay type: functional, organism-based
Cryptosporidium parvum [5] = assay: Antiparasitic activity against Cryptosporidium parvum infected in CB.17 SCID mouse assessed as faecal parasite load at 3 mg/kg, administered once daily for 3 days by OW50-FITC staining based flow cytometry relative to control; assay type: functional
Toxoplasma gondii = assay: Antiparasitic activity against Toxoplasma gondii infected in Scottish Blackface ewes assessed as mortality at 16.8 to 27.9 mg administered daily for 10 days prior to parasitic infection (reference value: 55.2%); assay type: functional
Cryptosporidium parvum [6] = assay: Antiparasitic activity against Cryptosporidium parvum GP-60 subtype 2a A15G2RI infected in human HCT8 cells assessed as inhibition of parasite development at 0.144 uM measured 27 hrs post infection by qPCR analysis; assay type: functional; conditions: HCT-8, 27 h
Leishmania donovani [7] = assay: Antileishmanial activity against Leishmania donovani MHOM/SD/001S-2D […] measured after 48 hrs by CellTiter-Glo luminescent cell viability assay; assay type: functional, organism-based
[8] = test system: Plasmodium vinckei petteri; assay: Antimalarial activity against Plasmodium vinckei petteri infected in IOPS OF1 mouse assessed as reduction in parasitemia at 10 mg/kg, sc administered once daily for 4 days relative to control; assay type: functional; set-up: scale not given: the % may be the effect or the level left
Leishmania major [9] = assay: Antileishmanial activity against promastigote stage of Leishmania major MHOM/IL/81/Friedlin transformed from lymph node cultures of infected Balb/c mouse measured after 48 hrs by luminometry; assay type: functional, organism-based
Leishmania donovani [10] = assay: Antileishmanial activity against Leishmania donovani MHOM/SD/001S-2D promastigotes transformed from splenic cultures of infected Chester Beatty hamster measured after 48 hrs by CellTiter-Glo luminescent cell viability assay; assay type: functional, organism-based
Leishmania major [11] = assay: Antileishmanial activity against […] measured after 48 hrs by luminometry; assay type: functional, organism-based
[12] = test system: Plasmodium vinckei petteri; assay: Antimalarial activity against Plasmodium vinckei petteri infected in IOPS OF1 mouse assessed as reduction in parasitemia administered once daily via sc for 4 days; assay type: functional; conditions: 96 h
Eimeria tenella = assay: Coccidiostat activity against Eimeria tenella infected in po dosed chicken; assay type: functional
Leishmania donovani [13] = assay: Antileishmanial activity against Leishmania donovani MHOM/SD/00/1S-2D promastigotes by luminescence assay; assay type: functional, organism-based
Schistosoma mansoni = assay: Antiparasitic activity against Schistosoma mansoni Puerto Rico PR-1 after 48 hrs by fluorescence based lactate release assay; assay type: functional, organism-based; conditions: Puerto Rico PR-1, 48 h

SMILES: CCCCNC(=O)[C@H](CC)[C@H]1CC[C@H](C)[C@H]([C@@H](C)[C@H](O)[C@H](C)C(=O)[C@H](CC)[C@H]2O[C@]3(C=C[C@@H](O)[C@]4(CC[C@@](C)([C@H]5CC[C@](O)(CC)[C@H](C)O5)O4)O3)[C@H](C)C[C@@H]2C)O1
MIC (Trypanosoma brucei [1]): 0.1 µM (≈ 0.0806 µg/mL)
GI50 (Trypanosoma brucei [2]): 0.04 µM

MIC (Trypanosoma brucei [1]): 0.1 to 1 µM (≈ 0.0833 to 0.833 µg/mL)
GI50 (Trypanosoma brucei [2]): 0.057 µM
SMILES: CC[C@@H](C(=O)[C@@H](C)[C@@H](O)[C@H](C)[C@@H]1O[C@@H]([C@@H](CC)C(=O)OCC(F)(F)F)CC[C@@H]1C)[C@H]1O[C@]2(C=C[C@@H](O)[C@]3(CC[C@@](C)([C@H]4CC[C@](O)(CC)[C@H](C)O4)O3)O2)[C@H](C)C[C@@H]1C

SMILES: CC[C@@H](C(=O)[C@@H](C)[C@@H](O)[C@H](C)CCc1c(Br)cc(C)c(O)c1C(=O)[O-])[C@H]1O[C@](CC)([C@H]2CC[C@](O)(CC)[C@H](C)O2)C[C@@H]1C.[Na+]
ED50 (Plasmodium chabaudi): 1.4 mg/kg
IC50 (Plasmodium falciparum [3]): 0.069 mg/L

SMILES: CC[C@@]1([C@@H]2O[C@@H]([C@H]3O[C@@](O)(COC(=O)Nc4ccc(Oc5ccccc5)cc4)[C@H](C)C[C@@H]3C)C[C@@H]2C)CC[C@H]([C@]2(C)CC[C@]3(C[C@H](O)[C@@H](C)[C@@H]([C@@H](C)[C@@H](OC)[C@@H](C)C(=O)[O-])O3)O2)O1.[Na+]
ED50 (Plasmodium berghei): 8 mg/kg

SMILES: CC[C@@]1([C@@H]2O[C@@H]([C@H]3O[C@@](O)(COS(=O)(=O)c4ccc(C)cc4)[C@H](C)C[C@@H]3C)C[C@@H]2C)CC[C@H]([C@]2(C)CC[C@]3(C[C@H](O)[C@@H](C)[C@@H]([C@@H](C)[C@@H](OC)[C@@H](C)C(=O)O)O3)O2)O1
ED50 (Plasmodium berghei): 1.25 mg/kg

EC50 (Plasmodium falciparum [4]): 0.00044 µM
SMILES: CO[C@@H]1[C@@H](OC)[C@H](C)[C@@](O)(CC(=O)O)O[C@H]1[C@H](C)[C@H]1O[C@@]2(CC[C@@](C)([C@H]3CC[C@@](C)([C@@H]4O[C@@H]([C@H]5O[C@](C)(O)[C@H](C)C[C@@H]5C)C[C@@H]4O[C@@H]4C[C@@H](OC)[C@@H](OC)[C@H](C)O4)O3)O2)C[C@H](O)[C@H]1C
Activity (Cryptosporidium parvum [5]): 96%

SMILES: CC[C@@]1([C@@H]2O[C@@H]([C@H]3O[C@@](O)(CO)[C@H](C)C[C@@H]3C)C[C@@H]2C)CC[C@H]([C@]2(C)CC[C@]3(C[C@H](O)[C@@H](C)[C@@H]([C@@H](C)[C@@H](OC)[C@@H](C)C(=O)O)O3)O2)O1
Activity (Toxoplasma gondii): 16.7%
inhibition at 0.144 µM (Cryptosporidium parvum [6]): 98%
EC50 (Leishmania donovani [7]): 0.23 µM
Activity [8]: 100%
EC50 (Leishmania major [9]): 0.09 µM
EC50 (Leishmania donovani [10]): 0.85 µM
EC50 (Leishmania major [11]): 0.38 µM
ED50 [12]: 1.1 mg/kg
ED90 [12]: 3.5 mg/kg

SMILES: CC[C@@]1([C@@H]2O[C@@H]([C@H]3O[C@@](O)(COC(=O)Nc4ccc(F)cc4)[C@H](C)C[C@@H]3C)C[C@@H]2C)CC[C@H]([C@]2(C)CC[C@]3(C[C@H](O)[C@@H](C)[C@@H]([C@@H](C)[C@@H](OC)[C@@H](C)C(=O)[O-])O3)O2)O1.[Na+]
ED50 (Eimeria tenella): 70 ppm

SMILES: CC[C@@]1([C@@H]2O[C@@H]([C@H]3O[C@@](O)(COC(=O)NCCc4ccccc4)[C@H](C)C[C@@H]3C)C[C@@H]2C)CC[C@H]([C@]2(C)CC[C@]3(C[C@H](O)[C@@H](C)[C@@H]([C@@H](C)[C@@H](OC)[C@@H](C)C(=O)[O-])O3)O2)O1.[Na+]
ED50 (Eimeria tenella): 50 ppm

SMILES: CC[C@@]1([C@@H]2O[C@@H]([C@H]3O[C@@](O)(COC(=O)Nc4ccc(I)cc4)[C@H](C)C[C@@H]3C)C[C@@H]2C)CC[C@H]([C@]2(C)CC[C@]3(C[C@H](O)[C@@H](C)[C@@H]([C@@H](C)[C@@H](OC)[C@@H](C)C(=O)[O-])O3)O2)O1.[Na+]
ED50 (Plasmodium berghei): 5 mg/kg

SMILES: CC[C@@]1([C@@H]2O[C@@H]([C@H]3O[C@@](O)(COC(=O)Nc4ccc(Br)cc4)[C@H](C)C[C@@H]3C)C[C@@H]2C)CC[C@H]([C@]2(C)CC[C@]3(C[C@H](O)[C@@H](C)[C@@H]([C@@H](C)[C@@H](OC)[C@@H](C)C(=O)[O-])O3)O2)O1.[Na+]
ED50 (Plasmodium berghei): 16 mg/kg

SMILES: CC[C@@]1([C@@H]2O[C@@H]([C@H]3O[C@@]4(COC(=O)O4)[C@H](C)C[C@@H]3C)C[C@@H]2C)CC[C@H]([C@]2(C)CC[C@]3(C[C@H](O)[C@@H](C)[C@@H]([C@@H](C)[C@@H](OC)[C@@H](C)C(=O)O)O3)O2)O1
ED50 (Plasmodium berghei): 0.75 mg/kg

SMILES: CC[C@@]1([C@@H]2O[C@@H]([C@H]3O[C@@](O)(COC(=O)Nc4ccccc4)[C@H](C)C[C@@H]3C)C[C@@H]2C)CC[C@H]([C@]2(C)CC[C@]3(C[C@H](O)[C@@H](C)[C@@H]([C@@H](C)[C@@H](OC)[C@@H](C)C(=O)[O-])O3)O2)O1.[Na+]
ED50 (Plasmodium berghei): 4 mg/kg

SMILES: CC[C@@]1([C@@H]2O[C@@H]([C@H]3O[C@@](O)(COC(=O)Nc4ccc(C)cc4)[C@H](C)C[C@@H]3C)C[C@@H]2C)CC[C@H]([C@]2(C)CC[C@]3(C[C@H](O)[C@@H](C)[C@@H]([C@@H](C)[C@@H](OC)[C@@H](C)C(=O)[O-])O3)O2)O1.[Na+]
ED50 (Eimeria tenella): 70 ppm

SMILES: CC[C@@]1([C@@H]2O[C@@H]([C@H]3O[C@@](O)(COC(=O)Nc4ccc(Cl)cc4)[C@H](C)C[C@@H]3C)C[C@@H]2C)CC[C@H]([C@]2(C)CC[C@]3(C[C@H](O)[C@@H](C)[C@@H]([C@@H](C)[C@@H](OC)[C@@H](C)C(=O)[O-])O3)O2)O1.[Na+]
ED50 (Plasmodium berghei): 2 mg/kg

SMILES: CC[C@@]1([C@@H]2O[C@@H]([C@H]3O[C@@](O)(COC(=O)Nc4ccc([N+](=O)[O-])cc4)[C@H](C)C[C@@H]3C)C[C@@H]2C)CC[C@H]([C@]2(C)CC[C@]3(C[C@H](O)[C@@H](C)[C@@H]([C@@H](C)[C@@H](OC)[C@@H](C)C(=O)[O-])O3)O2)O1.[Na+]
ED50 (Plasmodium berghei): 5 mg/kg

SMILES: CC[C@@H](C(=O)O)[C@@H]1O[C@@H]([C@@H](C)[C@H](O)[C@H](C)C(=O)[C@H](CC)[C@H]2O[C@]3(C=C[C@@H](O)[C@]4(CC[C@@](C)([C@H]5CC[C@](O)(CC)[C@H](C)O5)O4)O3)[C@H](C)C[C@@H]2C)[C@@H](C)C[C@@H]1C [NARASIN]
EC50 (Leishmania donovani [13]): 2 µM

SMILES: CO[C@@H]1C[C@@H](C[C@H]2CC[C@H](C)[C@H]([C@@H](C)C(=O)O)O2)O[C@]2(O[C@](C)([C@H]3CC[C@@](C)([C@@H]4O[C@@H]([C@H]5O[C@@](O)(CO)[C@H](C)C[C@@H]5C)C[C@@H]4C)O3)C[C@H]2C)[C@@H]1C [NIGERICIN]
ED50 [12]: 1.8 mg/kg
ED90 [12]: 4.6 mg/kg

SMILES: CC[C@@H](C(=O)[C@@H](C)[C@@H](O)[C@H](C)[C@@H]1O[C@@H]([C@@H](CC)C(=O)O)CC[C@@H]1C)[C@H]1O[C@]2(C=C[C@@H](O)[C@]3(CC[C@@](C)([C@H]4CC[C@](O)(CC)[C@H](C)O4)O3)O2)[C@H](C)C[C@@H]1C [SALINOMYCIN]
EC50 (Leishmania donovani [13]): 4 µM
IC50 (Schistosoma mansoni): 32.6 µM
